From EP0041615A1, “Use of imidazolyl-vinyl ketones and alcohols as antimicrobial agents” (BAYER AG, priority 1980, dated 1981)

Key:
[1] = tested on: Dermatophyten und Schimmelpilze; Hefen; test: Antimycotic in-vitro activity, serial dilution test; type: cell-based; conditions: inoculum 5 x 10^4 germs/ml, 28°C, 24 h (yeasts) or 96 h (dermatophytes, moulds), stated relative to prior-art compound (A)
Procedure: Antimykotische in-vitro-Wirksamkeit
Die in-vitro-Wirksamkeit im Reihenverdünnungstest wird mit Keiminokula von durchschnittlich 5 x 10^4 Keimen /ml Substant durchgeführt. Als Nährmedium dienten: • a) für Dermatophyten und Schimmelpilze: Sabouraud's milieu d'epreuve • b) für Hefen: Isotonic Sensitest-Broth von Oxid.
Die Bebrütungstemperatur berug 28°C; Bebrütungsdauer war 24 Stunden bei Hefen und 96 Stunden bei Dermatophyten und Schimmelpilzen.

[2] = tested on: Candida-Zellen; test: Antimycotic in-vivo activity (oral) in mouse candidosis; design: species or system Mäuse vom Typ SPF-CF1; conditions: 50-100 mg/kg each 1 h before and 7 h after i.v. infection, untreated controls about 5 % survival on day 6 p.i.
Procedure: Antimykotische in-vivo-Wirksamkeit (oral) bei Mäuse-Candidose
Mäuse vom Typ SPF-CF1 wurden intravenös mit 1-2 x 10^6 logarithmisch wachsenden Candida-Zellen, die in physiologischer Kochsalzlösung suspendiert waren, infiziert. Eine Stunde vor und sieben Stunden nach der Infektion werden die Tiere mit jeweils 50-100 mg/kg Körpergewicht der Präparate oral behandelt.
Unbehandelte Tiere starben 3 bis 6 Tage post infektionem. Die Ueberlebensrate am 6.Tag post infektionem betrug bei unbehandelten Kontrolltieren etwa 5 %.

[3] = tested on: Trichophyton mentagrophytes; test: Antimicrobial in-vivo activity (local), experimental guinea pig trichophytosis model; design: species or system Meerschweinchen der Rasse Pirbright-white; conditions: once daily from day 3 p.i., 1 % solution in dimethyl sulfoxide:glycerol 1:4, result means only slight reddening and isolated scales
Excerpt: Antimikrobielle in-vivo-Wirksamkeit (lokal) am Modell der experimetellen Meerschweinchen-Trichophytie
Weiße Meerschweinchen der Rasse Pirbright-white wurden auf dem geschorenen, nicht skarifizierten Rücken mit einer Mikro- und Makrokonidien-Suspension von Trichophyton mentagrophytes infiziert. Die infizierten Tiere wurden, beginnend am 3.Tag p.i., lx täglich mit 1%-iger Lösung der erfindungsgemäßen Präparate (in Dimethylsulfoxid:Glycerin=1:4) lokal behandelt.
Bei unbehandelten Tieren entwickelt sich innerhalb von 12 Tagen p.i. das typische Bild einer Dermatophytose mit Rötung, Schuppung und Haarausfall bis zum totalen Integument-Defekt an der Infektionsstelle.

Structure (SMILES) | antimykotische Wirkung [1] | Wirkung (Mäuse-Candidose) [2] | Wirkung (Meerschweinchen-Trichophytie) [3]
CC(C)(C)C(=O)C(=CC1CCCC1)n1ccnc1 [Beispiel 10] | bessere antimykotische Wirkung |  | 
CC(C)(C)C(=O)C(=Cc1ccccc1Cl)n1ccnc1 [Verbindung (A), reference compound] |  | keine Wirkung | 
CC=C(C(O)C(C)(C)C)n1ccnc1 (stereo not shown) [Beispiel 25] |  | gute bis sehr gute Wirkung | 
CC(C)C=C(C(=O)C(C)(C)C)n1ccnc1 [Beispiel 5] | bessere antimykotische Wirkung | gute bis sehr gute Wirkung | 
CCC(C)C=C(C(O)C(C)(C)C)n1ccnc1 (stereo not shown) [Beispiel 27] |  |  | Wirkung bis gute Wirkung
CC(C)(C)C(O)C(=CC1CCCC1)n1ccnc1 (stereo not shown) [Beispiel 28] | bessere antimykotische Wirkung |  | 
CC(C)(C)C(O)C(=Cc1ccc(Cl)cc1)n1ccnc1 (stereo not shown) [(B), reference compound] |  | keine Wirkung | 
CC(C)(C)C(O)C(=CC1c2ccccc2-c2ccccc21)n1ccnc1 (stereo not shown) [Beispiel 32] | bessere antimykotische Wirkung |  | 
CCCCCCCC=C(C(=O)C(C)(C)C)n1ccnc1 [Beispiel 1] | bessere antimykotische Wirkung |  | Wirkung bis gute Wirkung
CCCCCCCC=C(C(O)C(C)(C)C)n1ccnc1 (stereo not shown) [Beispiel 2] | bessere antimykotische Wirkung |  | Wirkung bis gute Wirkung
CC(C)(C)C(O)C(=CC1CCCCC1)n1ccnc1 (stereo not shown) [Beispiel 37] | bessere antimykotische Wirkung |  | 
CC(C)(C)C=C(C(=O)C(C)(C)C)n1ccnc1 [Beispiel 7] | bessere antimykotische Wirkung | gute bis sehr gute Wirkung | 
CCC(C)C=C(C(=O)C(C)(C)C)n1ccnc1 (stereo not shown) [Beispiel 8] | bessere antimykotische Wirkung | gute bis sehr gute Wirkung | Wirkung bis gute Wirkung
